Activity calls are given as the source filed them. No cut-off for these calls is given here.
Assays:
Assay type in all cases: functional, cell-based
iNKT [1] = assay: Induction of IL4 production in human iNKT cells
iNKT [2] = assay: Induction of IFN-gamma production in human iNKT cells
iNKT [3] = assay: Induction of IFN-gamma production in mouse iNKT cells
iNKT [4] = assay: Induction of IL4/IL13 production in mouse iNKT cells
iNKT [5] = assay: Induction of IL13 production in human iNKT cells
iNKT [6] = assay: Induction of proliferation in mouse iNKT cells
iNKT [7] = assay: Induction of IL4 production in mouse iNKT cells

SMILES | Activity (iNKT [1]) | Activity (iNKT [2]) | Activity (iNKT [3]) | Activity (iNKT [4]) | Activity (iNKT [5]) | Activity (iNKT [6]) | Activity (iNKT [7])
CCCCCCCCCCCCCCCCCCCCCCCCCC(=O)N[C@H](CO[C@H]1O[C@H](CO)[C@H](O)[C@H](O)[C@H]1O)[C@H](O)[C@H](O)CCCCCCCCCCCCCC | inactive | inactive |  |  |  |  | 
CCCCCCCCCCCCCCCCCCCCCCCCCC(=O)N[C@@H](CO[C@H]1O[C@H](CO)[C@H](O)[C@H](O)[C@H]1O)[C@H](O)[C@@H](O)CCCCCCCCCCCCCC | Active | Active | Active | Active | Active | Active | 
CCCCCCCCCCCCCCCCCCCCCCCCCC(=O)N[C@H](CO[C@H]1O[C@H](CO)[C@H](O)[C@H](O)[C@H]1O)[C@@H](O)[C@H](O)CCCCCCCCCCCCCC |  |  |  |  |  |  | Active
CCCCCCCCCCCCCCCCCCCCCCCCCC(=O)N[C@@H](CO[C@H]1O[C@H](CO)[C@H](O)[C@H](O)[C@H]1O)[C@H](O)[C@H](O)CCCCCCCCCCCCCC | Active | Active | Active | Active | Active | Active | 
CCCCCCCCCCCCCCCCCCCCCCCCCC(=O)N[C@@H](CO[C@H]1O[C@H](CO)[C@H](O)[C@H](O)[C@H]1O)[C@@H](O)[C@H](O)CCCCCCCCCCCCCC | Active | Active |  |  | Active | Active | Active
CCCCCCCCCCCCCCCCCCCCCCCCCC(=O)N[C@H](CO[C@H]1O[C@H](CO)[C@H](O)[C@H](O)[C@H]1O)[C@@H](O)[C@@H](O)CCCCCCCCCCCCCC |  |  |  |  |  | Active | 
CCCCCCCCCCCCCCCCCCCCCCCCCC(=O)N[C@@H](CO[C@H]1O[C@H](CO)[C@H](O)[C@H](O)[C@H]1O)[C@@H](O)[C@@H](O)CCCCCCCCCCCCCC | Active | Active |  |  | Active |  | Active

Reference: ChEMBL document CHEMBL1155102, “Synthesis of all stereoisomers of KRN7000, the CD1d-binding NKT cell ligand” (Bioorg Med Chem Lett, 2008)
